Experimental data published in article PMC7855930, “Nontoxic Cobalt(III) Schiff Base Complexes with Broad‐Spectrum Antifungal Activity” (Chemistry (Weinheim an Der Bergstrasse, Germany), 2020).
Where two headings read alike, the source gives them in different places.

Experiments:
C. albicans ATCC 90028 = assay: Antifungal MIC assay (broth microdilution in YNB); assay type: cell-based, Candida albicans
From the text: (§1) Yeast strains: Candida albicans (ATCC 90028, NCCLS 11), Cryptococcus neoformans (ATCC 208821, H99 type strain), Candida tropicalis (ATCC 750, type strain), Candida glabrata (ATCC 90030, NCCLS 84) and Cryptococcus deuterogattii (ATCC 32609, type strain) were obtained from the American Type Culture Collection (ATCC). Cryptococcus deuterogattii (CBS 7750), Candida auris (CBS 10913) and Candida auris (CBS 12373) were obtained from the CBS‐KNAW culture collection. The strains were maintained on glycerol/YPD (yeast extract‐peptone dextrose) broth (20:80 v/v) at −80 °C.
(§2) Antifungal minimum inhibitory concentration (MIC) assay: The cobalt complexes and antifungal control compounds were serially diluted in 50 μL of Yeast Nitrogen Broth (YNB; BD, Cat No. 233520 supplemented with 2 % glucose and 10 mM ammonium sulfate) two‐fold across the wells of non‐binding surface (NBS) 96‐well plates (Corning; Cat. No. 3641). Plates were set up in quadruplicate for each strain tested, and two biological replicates were conducted on separate assay days.
(§3) Yeast strains were cultured from glycerol onto YPD (Becton Dickinson 242720) agar at 30 °C for 72 h. For each strain, a minimum of five single colonies were taken from the agar plate and dissolved in sterile water and adjusted to form a yeast suspension of 1×10^6 to 5×10^6 CFU mL^−1 (as determined by OD530). The suspension was subsequently diluted into YNB media, and added to each well of the compound containing plates, giving a final cell density of 2.5×10^3 CFU mL^−1 and a total volume of 100 μL. Plates were covered and incubated at 35 °C for 36 h without shaking.
(§4) Growth inhibition of all strains was determined visually where the MIC was recorded as the lowest compound concentration with no visible growth. Fluconazole (Sigma F8929), ketoconazole (Sigma K1003) and micafungin (Sigma SML2288) were used as internal positive inhibitor controls for every strain tested.

C. auris CBS 10913 = assay: Antifungal MIC assay (broth microdilution in YNB); assay type: cell-based, Candida auris; details: for MIC: Candidozyma auris, CBS10913
From the text: as §1, §2, §3, §4

C. auris CBS 12373 = assay: Antifungal MIC assay (broth microdilution in YNB); assay type: cell-based, Candida auris
From the text: as §1, §2, §3, §4

C. glabrata ATCC 90030 = assay: Antifungal MIC assay (broth microdilution in YNB); assay type: cell-based, Candida glabrata
From the text: as §1, §2, §3, §4

C. tropicalis ATCC 750 = assay: Antifungal MIC assay (broth microdilution in YNB); assay type: cell-based, Candida tropicalis
From the text: as §1, §2, §3, §4

[1] = test system: C. deuterogattii ATCC 32609; assay: Antifungal MIC assay (broth microdilution in YNB); assay type: cell-based, Cryptococcus deuterogattii
From the text: as §1, §2, §3, §4

[2] = test system: C. deuterogattii CBS 7750; assay: Antifungal MIC assay (broth microdilution in YNB); assay type: cell-based, Cryptococcus deuterogattii
From the text: as §1, §2, §3, §4

[3] = test system: C. neoformans ATCC 208821; assay: Antifungal MIC assay (broth microdilution in YNB); assay type: cell-based, Cryptococcus neoformans
From the text: as §1, §2, §3, §4

human red blood cells = assay: Haemolysis assay; assay type: cell-based; details: 1 h at 37 °C
Experimental: Haemolysis assay: Human whole blood (Australian Red Cross Blood Service) was washed three times with three volumes of 0.9 % NaCl and resuspended in a concentration of 0.5×10^8 cells mL^−1, determined by manual cell count in a Neubauer haemocytometer. Washed cells were added to compound containing plates (384‐well round bottom polypropylene plates, Corning 3657) for a final volume of 50 μL, shaken for 10 min and incubated for 1 h at 37 °C, without shaking. After incubation, the plates were centrifuged at 1000 g for 10 min to pellet cells and debris, 25 μL of the supernatant was then transferred to reading plates (384‐well flat bottom polystyrene plates, Corning CLS3680), with haemolysis determined by measuring the supernatant absorbance at […] (OD405), using cells without inhibitors as negative control and cells with 1 % Triton X‐100 (Sigma T8787) as positive control. HC10 and HC50 (concentration at which 10 and 50 % haemolysis is induced, respectively) were calculated by curve fitting the inhibition values vs. log(concentration) of four replicates using a sigmoidal dose–response function with variable fitting values for top, bottom and slope using Prism 8. Melittin (Sigma M2272) was used as positive haemolytic control on each plate. Human ethics approval from the University of Queensland Institutional Human Research Ethics Committee was obtained for use of human blood for haemolysis studies (approval number 201400003).

[4] = test system: Escherichia coli ATCC 25922; assay: CO-ADD bacterial broth microdilution MIC assay; assay type: cell-based; details: CAMHB, 37 °C, 18 h, ≥ 80% inhibition
Experimental: CO-ADD High Throughput Screening
Bacterial broth microdilution minimum inhibitory concentration (MIC) assay Bacterial strains were cultured in Cation-adjusted Mueller Hinton broth (CAMHB; Bacto Laboratories 212322) at 37 °C overnight. A sample of each culture was then diluted 40-fold in fresh CAMHB and incubated at 37 °C for 1.5-3 h. The resultant mid-log phase cultures were diluted with CAMHB (CFU/mL measured by OD600), then added to each well of the compound-containing plates (384-well non-binding surface (NBS) plates; Corning CLS3640), giving a cell density of 5 × 10^5 CFU/mL and a total volume of 50 µL. Plates were covered and incubated at 37 °C for 18 h without shaking. Inhibition of bacterial growth was determined measuring absorbance at 600 nm (OD600), using media only as negative control and bacteria without inhibitors as positive control. MIC values were determined as the lowest concentration at which the growth was inhibited at ≥ 80%. Colistin sulfate (Sigma C4461) and vancomycin HCl (Sigma 861987) were used as positive inhibitor controls on each plate for Gram-negative and Gram-positive bacteria, respectively.
Figure S1. 1H NMR (400 MHz) of [Co(ATS)(DMAP)2]NO3 (3) in DMSO-d6.
(1 picture or pasted object on this page, not shown here)

## Oc1c(F)cccc1/C=N/CC/N=C/c1cccc(F)c1O [Compound L3]
C. albicans ATCC 90028; Candida albicans, ATCC90028, Table S1, read-out: MIC Candida albicans ATCC 90028
  MIC: > 30.4 µg/mL
C. albicans ATCC 90028; Candida albicans, ATCC90028, range of MICs, n=8, 35 °C, 36 h, visual, read-out: MIC C. albicans ATCC 90028
  MIC: > 100 µM
C. auris CBS 10913; Table S1, read-out: MIC Candida auris CBS 10913
  MIC: > 30.4 µg/mL
C. auris CBS 10913; range of MICs, n=8, 35 °C, 36 h, visual, read-out: MIC C. auris CBS 10913
  MIC: > 100 µM
C. auris CBS 12373; Candidozyma auris, CBS12373, Table S1, read-out: MIC Candida auris CBS 12373
  MIC: > 30.4 µg/mL
C. auris CBS 12373; Candidozyma auris, CBS12373, range of MICs, n=8, 35 °C, 36 h, visual, read-out: MIC C. auris CBS 12373
  MIC: 100 µM
C. glabrata ATCC 90030; Nakaseomyces glabratus, ATCC90030, Table S1, read-out: MIC Candida glabrata ATCC 90030
  MIC: > 30.4 µg/mL
C. glabrata ATCC 90030; Nakaseomyces glabratus, ATCC90030, range of MICs, n=8, 35 °C, 36 h, visual, read-out: MIC C. glabrata ATCC 90030
  MIC: > 100 µM
C. tropicalis ATCC 750; Candida tropicalis, ATCC750, Table S1, read-out: MIC Candida tropicalis ATCC 750
  MIC: > 30.4 µg/mL
C. tropicalis ATCC 750; Candida tropicalis, ATCC750, range of MICs, n=8, 35 °C, 36 h, visual, read-out: MIC C. tropicalis ATCC 750
  MIC: > 100 µM
[1]; Cryptococcus deuterogattii, ATCC32609, Table S1, read-out: MIC Cryptococcus deuterogattii ATCC 32609
  MIC: > 30.4 µg/mL
[1]; Cryptococcus deuterogattii, ATCC32609, range of MICs, n=8, 35 °C, 36 h, visual, read-out: MIC C. deuterogattii ATCC 32609
  MIC: 100 µM
[2]; Cryptococcus deuterogattii, CBS7750, Table S1, read-out: MIC Cryptococcus deuterogattii CBS 7750
  MIC: > 30.4 µg/mL
[2]; Cryptococcus deuterogattii, CBS7750, range of MICs, n=8, 35 °C, 36 h, visual, read-out: MIC C. deuterogattii CBS 7750
  MIC: > 100 µM
[3]; Cryptococcus neoformans, ATCC208821, Table S1, read-out: MIC Cryptococcus neoformans ATCC 208821
  MIC: > 30.4 µg/mL
[3]; Cryptococcus neoformans, ATCC208821, range of MICs, n=8, 35 °C, 36 h, visual, read-out: MIC C. neoformans ATCC 208821
  MIC: 100 µM
Human red blood cells
  Haem HC10 (concentration at which 10 % haemolysis is reached): >100 µM
[4]; Escherichia coli, ATCC25922, read-out: MIC Ec (Escherichia coli ATCC 25922)
  MIC: > 32 µg/mL

## [Co(3F‐salophen)(3F‐BnNH2)2]NO3 [Compound 6]
C. albicans ATCC 90028; Table S1
  MIC Candida albicans ATCC 90028: 69.4 µg/mL
C. albicans ATCC 90028; range of MICs, n=8, 35 °C, 36 h, visual, read-out: MIC C. albicans ATCC 90028
  MIC: 100 µM
C. auris CBS 10913; Table S1
  MIC Candida auris CBS 10913: 0.03 to 0.54 µg/mL
C. auris CBS 10913; lower end of MIC range
  MIC C. auris CBS 10913, lowest value ('as low as'): 0.098 µM
C. auris CBS 12373; Table S1
  MIC Candida auris CBS 12373: 17.3 µg/mL
C. auris CBS 12373; range of MICs, n=8, 35 °C, 36 h, visual, read-out: MIC C. auris CBS 12373
  MIC: 25 µM
C. glabrata ATCC 90030; Table S1
  MIC Candida glabrata ATCC 90030: > 69.4 µg/mL
C. glabrata ATCC 90030; range of MICs, n=8, 35 °C, 36 h, visual, read-out: MIC C. glabrata ATCC 90030
  MIC: >100 µM
C. tropicalis ATCC 750; Table S1
  MIC Candida tropicalis ATCC 750: > 69.4 µg/mL
C. tropicalis ATCC 750; range of MICs, n=8, 35 °C, 36 h, visual, read-out: MIC C. tropicalis ATCC 750
  MIC: >100 µM
[1]; Table S1
  MIC Cryptococcus deuterogattii ATCC 32609: 69.4 µg/mL
[1]; range of MICs, n=8, 35 °C, 36 h, visual, read-out: MIC C. deuterogattii ATCC 32609
  MIC: 100 µM
[2]; Table S1
  MIC Cryptococcus deuterogattii CBS 7750: > 69.4 µg/mL
[2]; range of MICs, n=8, 35 °C, 36 h, visual, read-out: MIC C. deuterogattii CBS 7750
  MIC: >100 µM
[3]; Table S1
  MIC Cryptococcus neoformans ATCC 208821: 69.4 µg/mL
[3]; range of MICs, n=8, 35 °C, 36 h, visual, read-out: MIC C. neoformans ATCC 208821
  MIC: 100 µM
Human red blood cells
  Haem HC10 (concentration at which 10 % haemolysis is reached): >100 µM
[4]
  MIC Ec (Escherichia coli ATCC 25922): > 32 µg/mL
